Experimental data reported in US20090131443A1, “METHOD FOR PREVENTION AND/OR TREATMENT OF RHEUMATOID ARTHRITIS” (Kowa Co., Ltd., priority 2005, published 2009).

System: rats of a collagen-induced arthritis model
Experiment: Both-hindlimb edema suppression in rats of a collagen-induced arthritis model
Assay type: in vivo, Lewis female rats (LEW/Crj)
Settings: solo administration; for Edema Index: mean ± standard error, control group 6.85 ± 0.33; for Percent edema suppression: vs control group
Procedure: The effect on suppressing both-hindlimb edema of 2-benzyl-5-(4-chlorophenyl)-6-[4-(methylthio)phenyl]-2H-pyridazin-3-one (synthesized through the aforementioned method) and that of tacrolimus (Prograf (injection: 5 mg), product of Fujisawa Pharmaceutical Co., Ltd.) were determined both in the cases of combined administration and solo administration through the following procedure (by use of rats of a collagen-induced arthritis model) (FDA, CBER, CDER, CDRH: Guidance for industry—Clinical development programs for drugs, devices, and biological products for the treatment of rheumatoid arthritis (RA)—. (1999)). Lewis female rats (LEW/Crj) (obtained from Charles River Laboratories Japan, Inc.) were employed as test animals.
For each 8-week-old LEW/Crj rat, the volume of a portion from the ankle to the toe tip of each hindlimb was measured by means of a plethysmometer for small animals (TK-101CMP, product of Unicom), and a total of the two volumes was employed as a volume of the hindlimbs (hereinafter referred to as both-hindlimb volume) at the start of the test (hereinafter referred to as Pre value). By use of the Pre value as an index, the rats were divided into groups which are alike from group to group, through one-parameter-based block randomization.
The collagen emulsion for sensitization employed for inducing arthritis in rats was prepared by homogenizing a 0.3% Type II collagen liquid (product of Collagen Research Center), adjuvant peptide (product of Peptide Institute, Inc.), and adjuvant incomplete Freund (product of DIFCO) by means of a Handy Micro Homogenizer (product of Microtec Nition) under cooling with ice. The thus-prepared emulsion was intracutaneously injected to 10 sites in the dorsum of each rat at 0.1 mL/site, to thereby initially sensitize the rat. Seven days after initial sensitization, the same emulsion (0.12 mL) was intracutaneously injected to the tail head of the rat for booster sensitization.
Administration of one drug or two drugs was carried out the day after initial sensitization to day 26. To the 2-benzyl-5-(4-chlorophenyl)-6-[4-(methylthio)phenyl]-2H-pyridazin-3-one solo administration group, the drug was orally administered twice; in the morning (9:00 to 11:00) and in the evening (15:30 to 17:30) at a dose of 3 mg/kg. To the tacrolimus sole administration group, the drug was orally administered once in the afternoon (11:30 to 13:30) at a dose of 0.1, 0.3, or 1 mg/kg. To the combined administration group (2-benzyl-5-(4-chlorophenyl)-6-[4-(methylthio)phenyl]-2H-pyridazin-3-one and tacrolimus), 2-benzyl-5-(4-chlorophenyl)-6-[4-(methylthio)phenyl]-2H-pyridazin-3-one was orally administered in the morning (9:00 to 11:00) and in the evening (15:30 to 17:30) at a dose of 3 mg/kg, and tacrolimus was orally administered in the afternoon (11:30 to 13:30) at a dose of 0.3 mg/kg.
14 days, 18 days, 22 days, and 26 days after initial sensitization, both-hindlimb volume was measured. Volume of both-hindlimb edema was calculated by subtracting the Pre value from the thus-measured value.
Table 1 and FIG. 1 show Edema Index of the groups of rats, the groups being the 2-benzyl-5-(4-chlorophenyl)-6-[4-(methylthio)phenyl]-2H-pyridazin-3-one solo administration group, the tacrolimus solo administration group, and the combined administration group. The Edema Index of each group is an average of the indices obtained from 6 to 12 rats ±a standard error. Percent edema suppression represents a value obtained from the relationship:
100×[(average both-hindlimb edema volume of the control group)−(average both-hindlimb edema volume of each administration group)]/(average both-hindlimb edema volume of the control group). Relative factor represents a ratio of (average both-hindlimb edema volume of each administration group)/(average both-hindlimb edema volume of the control group).

Structure (SMILES)	Edema Index suppression effect (in words) (3 mg/kg)	Edema Index (3 mg/kg orally twice daily, day 1 to day 26 after initial sensitization, sum of both-hindlimb edema volumes at days 14, 18, 22, 26) [mL]	Relative factor (3 mg/kg orally twice daily, ratio of group average edema volume to control group)	Percent edema suppression (3 mg/kg orally twice daily) [%]	Edema Index (0.1 mg/kg orally once daily, day 1 to day 26) [mL]	Relative factor (0.1 mg/kg orally once daily, ratio to control group)	Percent edema suppression (0.1 mg/kg orally once daily) [%]	Edema Index (0.3 mg/kg orally once daily, day 1 to day 26) [mL]	Relative factor (0.3 mg/kg orally once daily, ratio to control group)	Percent edema suppression (0.3 mg/kg orally once daily) [%]	Edema Index (1 mg/kg orally once daily, day 1 to day 26) [mL]	Relative factor (1 mg/kg orally once daily, ratio to control group)	Percent edema suppression (1 mg/kg orally once daily) [%]	Edema Index suppression effect (in words) (up to 1 mg/kg)
CSc1ccc(-c2nn(Cc3ccccc3)c(=O)cc2-c2ccc(Cl)cc2)cc1 [2-benzyl-5-(4-chlorophenyl)-6-[4-(methylthio)phenyl]-2H-pyridazin-3-one]	do not result in potent Edema Index suppression effects	5.58 ± 0.63	0.81	19	–	–	–	–	–	–	–	–	–	–
C=CC[C@@H]1/C=C(\C)C[C@H](C)C[C@H](OC)[C@H]2O[C@@](O)(C(=O)C(=O)N3CCCC[C@H]3C(=O)O[C@H](/C(C)=C/[C@@H]3CC[C@@H](O)[C@H](OC)C3)[C@H](C)[C@@H](O)CC1=O)[C@H](C)C[C@@H]2OC [Tacrolimus, tacrolimus]	–	–	–	–	6.75 ± 0.31	0.99	1	6.09 ± 0.30	0.89	11	5.04 ± 0.20	0.74	26	do not result in potent Edema Index suppression effects
